Assay results published in ChEMBL document CHEMBL1201862, “PubChem BioAssay data set” (2004).
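Grown in 96-well plates, cells were treated for 48 hours with each compound at five concentrations. Insufficient inhibition: endpoint recorded as highest concentration tested. At the GI50, growth is halved.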 The source made the active and inactive calls. Cut-off read from the data, not from the text of the source: active = GI50 up to about 1.1 µM and inactive = higher.

Key:
Assay in all cases: growth of human tumour cells (NCI), 48 h
LOX IMVI = tested on: LOX IMVI
786-0 = tested on: 786-0
UACC-62 = tested on: UACC-62
HCC 2998 = tested on: HCC 2998
U-251 = tested on: U-251
HCT-116 = tested on: HCT-116
SF-539 = tested on: SF-539
HOP-92 = tested on: HOP-92
SK-MEL-2 = tested on: SK-MEL-2
SF-268 = tested on: SF-268
KM12 = tested on: KM12
Malme-3M = tested on: Malme-3M
MOLT-4 = tested on: MOLT-4
CAKI-1 = tested on: CAKI-1
MDA-MB-231 = tested on: MDA-MB-231
BT-549 = tested on: BT-549
Hs-578T = tested on: Hs-578T
MCF7 = tested on: MCF7
NCI/ADR-RES = tested on: NCI/ADR-RES
PC-3 = tested on: PC-3

| SMILES | GI50 (LOX IMVI) | GI50 (786-0) | GI50 (UACC-62) | GI50 (HCC 2998) | GI50 (U-251) | GI50 (HCT-116) | GI50 (SF-539) | GI50 (HOP-92) | GI50 (SK-MEL-2) | GI50 (SF-268) | GI50 (KM12) | GI50 (Malme-3M) | GI50 (MOLT-4) | GI50 (CAKI-1) | GI50 (MDA-MB-231) | GI50 (BT-549) | GI50 (Hs-578T) | GI50 (MCF7) | GI50 (NCI/ADR-RES) | GI50 (PC-3) |
| --- | --- | --- | --- | --- | --- | --- | --- | --- | --- | --- | --- | --- | --- | --- | --- | --- | --- | --- | --- | --- |
| Cc1ccc(NC(=O)CC2Sc3ccccc3NC2=O)c(C)c1 (stereo unspecified) | 19.6 µM (inactive) | 13.7 µM (inactive) | 12.2 µM (inactive) | 11 µM (inactive) | 14 µM (inactive) | 10.3 µM (inactive) | 14 µM (inactive) | 17.4 µM (inactive) | 4.56 µM (inactive) | 21.4 µM (inactive) | 4.88 µM (inactive) | 14.7 µM (inactive) | 6.71 µM (inactive) | 21.5 µM (inactive) |  |  |  |  |  |  |
| CC[C@@H](O)C[C@H]1CCC[C@@]2(C[C@@H]3OC(=O)/C=C/[C@@](C)(O)[C@@H](O)[C@H](C)[C@@H](O)[C@H](OC4CCC(N(C)C)C(C)O4)[C@@H](O)[C@](C)(O)CCCCC/C=C/[C@@H]4CC(C)(C)O[C@@]4(O)C[C@H](O2)[C@H]3C)O1 (stereo partly specified) | 1.82 µM (inactive) | 11.3 µM (inactive) | 6.37 µM (inactive) | 2.4 µM (inactive) | < 0.01 µM (active) | 1.54 µM (inactive) | 10.9 µM (inactive) | 13.7 µM (inactive) | 10.5 µM (inactive) | 15.7 µM (inactive) | 0.34 µM (active) | 1.56 µM (inactive) | 1.91 µM (inactive) | 3.61 µM (inactive) | 17.5 µM (inactive) | 12.6 µM (inactive) | 12.8 µM (inactive) | < 0.01 µM (active) |  |  |
| CC1(C)CCOC(=O)C(Cl)CC1Cl (stereo unspecified) | > 100 µM (inactive) | > 100 µM (inactive) | > 100 µM (inactive) | > 100 µM (inactive) | > 100 µM (inactive) | > 100 µM (inactive) | > 100 µM (inactive) |  | > 100 µM (inactive) | > 100 µM (inactive) | > 100 µM (inactive) | > 100 µM (inactive) | > 100 µM (inactive) | > 100 µM (inactive) | > 100 µM (inactive) |  | > 100 µM (inactive) | > 100 µM (inactive) | > 100 µM (inactive) | > 100 µM (inactive) |
| COc1ccc(C=O)cc1Oc1ccc(C[C@H]2c3c(cc(OC)c4c3Oc3cc5c(cc3O4)CCN(C)C5=O)CCN2C)cc1 | 9.29 µM (inactive) | 8.61 µM (inactive) |  | 8.28 µM (inactive) | 9.51 µM (inactive) | 7.05 µM (inactive) | 8.67 µM (inactive) | 7.14 µM (inactive) | 11.5 µM (inactive) | 10.3 µM (inactive) | 8.91 µM (inactive) | 10.4 µM (inactive) | 9.95 µM (inactive) | 18.7 µM (inactive) | 7.6 µM (inactive) |  | 8.04 µM (inactive) | 7.66 µM (inactive) | 8.07 µM (inactive) | 8.75 µM (inactive) |
| COc1cc2c(cc1OC)C1c3ccccc3CCN1CC2 (stereo unspecified) | 48.6 µM (inactive) | > 100 µM (inactive) | 58.1 µM (inactive) | 43.6 µM (inactive) | 95.3 µM (inactive) | 36.8 µM (inactive) | 31.1 µM (inactive) | 59.3 µM (inactive) | > 100 µM (inactive) | > 100 µM (inactive) | > 100 µM (inactive) | > 100 µM (inactive) | 78.3 µM (inactive) | > 100 µM (inactive) | 68.7 µM (inactive) |  | 58.2 µM (inactive) | > 100 µM (inactive) | 95.7 µM (inactive) | > 100 µM (inactive) |
| Cc1cccc(/C(Br)=C2/OC(=O)c3ccccc32)c1 |  | > 100 µM (inactive) | > 100 µM (inactive) | > 100 µM (inactive) | > 100 µM (inactive) | > 100 µM (inactive) | > 100 µM (inactive) | > 100 µM (inactive) |  | > 100 µM (inactive) | > 100 µM (inactive) | > 100 µM (inactive) | > 100 µM (inactive) | > 100 µM (inactive) |  | > 100 µM (inactive) | > 100 µM (inactive) | > 100 µM (inactive) |  | > 100 µM (inactive) |
| CSc1nc2c(c(=O)[nH]1)N=C(c1ccc([N+](=O)[O-])cc1)CC(c1ccccc1)N2 (stereo unspecified) | 28.1 µM (inactive) | 34.7 µM (inactive) | 27.4 µM (inactive) | 22.5 µM (inactive) | 33.6 µM (inactive) | 21.4 µM (inactive) | 29.2 µM (inactive) | > 100 µM (inactive) | 28.3 µM (inactive) |  | 17.9 µM (inactive) | 55.5 µM (inactive) | 31.3 µM (inactive) | 89.1 µM (inactive) | 32.3 µM (inactive) | 37.7 µM (inactive) |  | 23.7 µM (inactive) | 30 µM (inactive) | 49.4 µM (inactive) |
